Data reported in paper PMC10819888, “Benzimidazole-Based Derivatives as Apoptotic Antiproliferative Agents: Design, Synthesis, Docking, and Mechanistic Studies” (Molecules, 2024).

How the values were obtained:
[1] = system: NCI/ADR-RES; assay: NCI-60 one-dose assay; format: cell-based; details: Homo sapiens, NCI/ADR-RES (ovarian cancer), read-out: Cell Inhibition Percent
[2] = system: NCI-H522; assay: NCI-60 one-dose assay; format: cell-based; details: Homo sapiens, NCI-H522 (Non-Small Cell Lung Cancer), read-out: Cell Inhibition Percent
[3] = system: IGROV1; assay: NCI-60 one-dose assay; format: cell-based; details: Homo sapiens, IGROV-1, IGROV1 (ovarian cancer), read-out: Cell Inhibition Percent
[4] = system: MDA-MB-435; assay: NCI-60 one-dose assay; format: cell-based; details: Homo sapiens, MDA-MB-435 (Melanoma), read-out: Cell Inhibition Percent
[5] = system: EKVX; assay: NCI-60 one-dose assay; format: cell-based; details: Homo sapiens, EKVX (Non-Small Cell Lung Cancer), read-out: Cell Inhibition Percent
[6] = system: UACC-257; assay: NCI-60 one-dose assay; format: cell-based; details: Homo sapiens, UACC-257 (Melanoma), read-out: Cell Inhibition Percent
[7] = system: SF-539; assay: NCI-60 one-dose assay; format: cell-based; details: Homo sapiens, SF-539 (CNS cancer), read-out: Cell Inhibition Percent
[8] = system: SW-620; assay: NCI-60 one-dose assay; format: cell-based; details: Homo sapiens, SW-620 (Colon Cancer), read-out: Cell Inhibition Percent
[9] = system: MALME-3M; assay: NCI-60 one-dose assay; format: cell-based; details: Homo sapiens, MALME-3M (Melanoma), read-out: Cell Inhibition Percent
[10] = system: HL-60(TB); assay: NCI-60 one-dose assay; format: cell-based; details: Homo sapiens, HL-60(TB) (Leukemia), read-out: Cell Inhibition Percent
[11] = system: U251; assay: NCI-60 one-dose assay; format: cell-based; details: Homo sapiens, U-251, U251 (CNS cancer), read-out: Cell Inhibition Percent
[12] = system: HCT-116; assay: NCI-60 one-dose assay; format: cell-based; details: Homo sapiens, HCT-116 (Colon Cancer), read-out: Cell Inhibition Percent
[13] = system: HOP-92; assay: NCI-60 one-dose assay; format: cell-based; details: Homo sapiens, HOP-92 (Non-Small Cell Lung Cancer), read-out: Cell Inhibition Percent
[14] = system: 786-0; assay: NCI-60 one-dose assay; format: cell-based; details: Homo sapiens, 786-0 (Renal Cancer), read-out: Cell Inhibition Percent
[15] = system: SK-MEL-2; assay: NCI-60 one-dose assay; format: cell-based; details: Homo sapiens, SK-MEL-2 (Melanoma), read-out: Cell Inhibition Percent
[16] = system: PC-3; assay: NCI-60 one-dose assay; format: cell-based; details: Homo sapiens, PC-3 (Prostate Cancer), read-out: Cell Inhibition Percent
[17] = system: SR; assay: NCI-60 one-dose assay; format: cell-based; details: Homo sapiens, SR (Leukemia), read-out: Cell Inhibition Percent
[18] = system: NCI-H460; assay: NCI-60 one-dose assay; format: cell-based; details: Homo sapiens, NCI-H460 (Non-Small Cell Lung Cancer), read-out: Cell Inhibition Percent
[19] = system: SK-MEL-28; assay: NCI-60 one-dose assay; format: cell-based; details: Homo sapiens, SK-MEL-28 (Melanoma), read-out: Cell Inhibition Percent
[20] = system: M14; assay: NCI-60 one-dose assay; format: cell-based; details: Homo sapiens, M14 (Melanoma), read-out: Cell Inhibition Percent
[21] = system: MDA-MB 231; assay: NCI-60 one-dose assay; format: cell-based; details: Homo sapiens, MDA-MB 231 (Breast Cancer), read-out: Cell Inhibition Percent
[22] = system: SF-268; assay: NCI-60 one-dose assay; format: cell-based; details: Homo sapiens, SF-268 (CNS cancer), read-out: Cell Inhibition Percent
[23] = system: DU-145; assay: NCI-60 one-dose assay; format: cell-based; details: Homo sapiens, DU-145 (Prostate Cancer), read-out: Cell Inhibition Percent
[24] = system: RPMI-8226; assay: NCI-60 one-dose assay; format: cell-based; details: Homo sapiens, RPMI-8226 (Leukemia), read-out: Cell Inhibition Percent
[25] = system: MCF7; assay: NCI-60 one-dose assay; format: cell-based; details: Homo sapiens, MCF7 (Breast Cancer), read-out: Cell Inhibition Percent
[26] = system: OVCAR-5; assay: NCI-60 one-dose assay; format: cell-based; details: Homo sapiens, OVCAR-5 (ovarian cancer), read-out: Cell Inhibition Percent
[27] = system: RXF 393; assay: NCI-60 one-dose assay; format: cell-based; details: Homo sapiens, RXF 393 (Renal Cancer), read-out: Cell Inhibition Percent
[28] = system: HOP-62; assay: NCI-60 one-dose assay; format: cell-based; details: Homo sapiens, HOP-62 (Non-Small Cell Lung Cancer), read-out: Cell Inhibition Percent
[29] = system: MOLT-4; assay: NCI-60 one-dose assay; format: cell-based; details: Homo sapiens, MOLT-4 (Leukemia), read-out: Cell Inhibition Percent

For O=C(N/N=C/c1ccc(O)cc1)c1ccc2[nH]c(-c3ccc(Cl)cc3)nc2c1 [Compound 4i, N′-(4-Hydroxybenzylidene)-2-(4-chlorophenyl)-1H-benzimidazole-5-carbohydrazide], the inhibition at 10 µM [1] was 0%, the inhibition at 10 µM [2] was 9.85% and the inhibition at 10 µM [3] was 17%. It also gave an inhibition at 10 µM [4] of 0%, an inhibition at 10 µM [5] of 0% and an inhibition at 10 µM [6] of 0%. It also gave an inhibition at 10 µM [7] of 1.95%, an inhibition at 10 µM [8] of 0% and an inhibition at 10 µM [9] of 21.4%. The inhibition at 10 µM [10] was 0%, the inhibition at 10 µM [11] was 0% and the inhibition at 10 µM [12] was 0%. The inhibition at 10 µM [13] was 0%, the inhibition at 10 µM [14] was 0% and the inhibition at 10 µM [15] was 0%. It also gave an inhibition at 10 µM [16] of 0%, an inhibition at 10 µM [17] of 2.26% and an inhibition at 10 µM [18] of 0%. It also gave an inhibition at 10 µM [19] of 0%, an inhibition at 10 µM [20] of 0.44% and an inhibition at 10 µM [21] of 2.75%. For the same compound, the inhibition at 10 µM [22] was 13.7%, the inhibition at 10 µM [23] was 0% and the inhibition at 10 µM [24] was 1.52%. For the same compound, the inhibition at 10 µM [25] was 25.1%, the inhibition at 10 µM [26] was 0% and the inhibition at 10 µM [27] was 0%. It also gave an inhibition at 10 µM [28] of 0%, an inhibition at 10 µM [29] of 15.6% and a melting point of 263 to 265 °C.
